In patent US8409560B2, “Solid dispersion formulations and methods of use thereof” (Zalicus Pharmaceuticals Ltd., priority 2011, dated 2013):
Where two headings read alike, the source gives them in different places.

Key:
Caco-2 cells = experiment: Caco-2 apparent intestinal permeability; type: in vitro ADME; conditions: for Papp, replicates R1-R3: 1 μM
From the text: (§1) Absorption of particular drugs may be limited by biological factors, such as reduced cellular permeability in the intestine. Many cellular mechanisms can influence permeability, such as reduced passive paracellular and transcellular transport or increased active export by the efflux transporter protein P-glycoprotein. Thus, the use of self-emulsifying carriers may not be beneficial for drugs having limited cellular permeability, where methods to increase the solubilization of a drug may not increase its permeability in the gastrointestinal tract. Experiments were conducted to assess the apparent intestinal permeability of compound 1 using a Caco-2 cell model.
(§2) Briefly, Caco-2 cells were used as an in vitro model for predicting absorption through the intestinal epithelium. Confluent monolayers of Caco-2 cells were grown on collagen-coated, microporous, polycarbonate membranes (12-well Costar Transwell® plates) that are placed between two chambers. The apical side of the monolayer was exposed to the buffer solution in a first chamber, but the basolateral side of the monolayer adhered to microporous membranes fluidically connected to a second chamber. The dosing solution was added to the first chamber for measurements in the apical-to-basolateral direction (A-to-B) and to the second chamber for measurements in the basolateral-to-apical direction (B-to-A). […] The permeability assay buffer was Hanks Balanced Salt Solution containing 10 mM HEPES and 15 mM glucose at a pH of 7.4. The buffer in the receiver chamber also contained 1% bovine serum albumin. The dosing solution concentration was 1 μM of compound 1 in the assay buffer. All donor chambers were first pre-incubated for five minutes with dosing solution to attempt to saturate any non-specific binding sites on the device with test compound. After five minutes, the solution was removed and replaced with fresh dosing solution, and time was recorded as 0. Cell monolayers were dosed on the apical side/first chamber (for A-to-B measurements) or basolateral side/second chamber (for B-to-A measurements) and incubated at 37° C. with 5% CO2 in a humidified incubator. At 30 and 60 minutes, aliquots were taken from the receiver chambers and replaced with fresh assay buffer. Samples were taken from the donor chamber at 0 and 60 minutes. Each experiment was performed in triplicate.
(§3) The apparent permeability (Papp), percent recovery, and efflux ratio were calculated as follows:
(§4) [formula] [formula] where
(§5) [formula] is the slope of the cumulative concentration in the receiver chamber as a function of time; Vr [cm^3] is the volume of the receiver chamber; Vd [cm^3] is the volume of the donor chamber; A [cm^2] is the area of the cell monolayer, which is estimated to be about 1.13 cm^2 for the 12-well Costar Transwell® plates; C0 [μM] is the measured concentration in the donor chamber at t=0 hours; CN [μM] is the nominal concentration of the dosing solution; Cr final [μM] is the cumulative concentration in the receiver chamber at the end of the incubation period; and Cd final [μM] is the cumulative concentration in the donor chamber at the end of the incubation period.
(§6) Thus, absorption of compound 1 in humans is not expected to be permeability limited.

[1] = Caco-2 apparent intestinal permeability; type: in vitro ADME; conditions: for recovery at 60 min, 1 μM: read-out: Percent Recovery
From the text: as §1, §2, §3, §4, §5, §6

[2] = Supersaturation dissolution kinetics of hot melt extrusion formulations; type: physicochemical; conditions: processing conditions na
Description: Supersaturation dissolution kinetics provides valuable information regarding the performance of different matrix polymers in combination with an active agent. In particular, such studies could provide insight on which formulations could provide enhanced bioavailability. Accordingly, dissolution studies were conducted on the following three HME formulations: Kollidon® VA 64 (Copovidone), HPMCAS-MF (Hypromellose Acetate Succinate), and Kollidon® K30 (Povidone, PVP).
Briefly, the target concentration of the dissolution sample solution was 1.1 mg/mL, or ten times the estimated sink dissolution sample solution concentration produced by a 100 mg dose when dissolved in 900 mL of dissolution media. Triplicate preparations of about 10 mg of extrudate (2 mg of compound 1 in the three HME formulations) were transferred into separate micro-centrifuge tubes. About 1.8 mL of dissolution media was preheated to 37° C. and added to each tube, where the tube was then placed into an incubator shaker at 37° C. and 250 rpm. Samples were centrifuged at 13,000 rpm for one minute, and 25 μL aliquots of the clear supernatant were transferred into HPLC vials and diluted with 1.0 mL of HPLC mobile phase (30%/70% of pH 6.6 buffer/acetonitrile) at 10′ (minutes), 20′, 40′, 1 hr (hour), 1.5 hrs, 2 hrs, 4 hrs, and 24 hrs. An isocratic HPLC method was applied for quantitation against a five point calibration curve in the range of 5.5-220 μg/mL (C18, 5 μm, 4.6×150 mm column, and UV 216 nm detection). The HPLC sample solution target concentration was 27.1 μg/mL.

[3] = pKa of compound 1 (previously determined); type: physicochemical
From the text: Compound 1 has the following previously determined characteristics: […]

[4] = Adverse effects at doses of up to 1,600 mg; type: in vivo
From the text: Yet, compound 1 is also known to have decreased oral bioavailability in the fasted state, as compared to the fed state. Accordingly, the invention provides formulations to increase the oral bioavailability or to reduce patient-to-patient variability in pharmacokinetic behavior of compound 1, compound 2, or a salt thereof. Generally, amorphous forms of a drug are more readily absorbed within the gastric and intestinal system and, thus, have increased bioavailability, as compared to crystalline forms of the drug. These formulations include use of a solid dispersion system to provide a matrix polymer capable of maintaining therapeutically effective amounts of compound 1, compound 2, or a salt thereof, in an amorphous form.

## O=C(CC(c1ccccc1)c1ccccc1)N1CCN(C(c2ccccc2)c2ccccc2)CC1 [Compound 1, 1-(4-benzhydrylpiperazin-1-yl)-3,3-diphenylpropan-1-one]
Caco-2 cells; A-to-B
  Papp, replicates R1-R3: 4.31 10^−6 cm/s
Caco-2 cells; B-to-A
  Papp, replicates R1-R3: 3.48 10^−6 cm/s
Caco-2 cells; Papp(A-to-B) more than 1.0×10^−6 cm/s
  permeability classification: high permeability coefficient
Caco-2 cells; efflux ratio of less than 3
  efflux significance: not considered significant
[1]; Caco-2, pH 7.4, Cell-free
  recovery at 60 min, 1 μM: 54%
[1]; human, Caco-2, pH 7.4, A-to-B, read-out: Papp Avg.
  Papp A→B at 60 min, 1 μM: 5.15 ×10⁻⁶ cm/s
[1]; human, Caco-2, pH 7.4, A-to-B, read-out: Papp, replicates R1-R3
  Papp A→B at 60 min, 1 μM: 4.37 ×10⁻⁶ cm/s
[1]; human, Caco-2, pH 7.4, A-to-B
  recovery at 60 min, 1 μM: 28%
[1]; human, Caco-2, pH 7.4, B-to-A, read-out: Papp Avg.
  Papp B→A at 60 min, 1 μM: 4.32 ×10⁻⁶ cm/s
[1]; human, Caco-2, pH 7.4, B-to-A, read-out: Papp, replicates R1-R3
  Papp B→A at 60 min, 1 μM: 5.04 ×10⁻⁶ cm/s
[1]; human, Caco-2, pH 7.4, B-to-A
  recovery at 60 min, 1 μM: 37%
[1]; human, Caco-2, pH 7.4, read-out: Efflux Ratio (Papp(B-to-A)/Papp(A-to-B))
  efflux ratio at 60 min, 1 μM: 0.8
[2]
  AUC0-4 hr (dissolution): 8000 ng·h/mL
  Tmax (dissolution): 2 h
[2]; 37° C.
  Cmax (dissolution): 2645 ng/mL
[3]
  pKa: 5.4
[4]
  adverse effects: no adverse effects
